{"source": "patent US20020192159A1", "about": "“Single-patient drug trials used with accumulated database: flowchart” (priority 2001, published 2002)", "key": {"[1]": {"tested_on": "patient with perennial allergic rhinitis", "conditions": "for incidence of sedation: day 4 of treatment"}, "individual patient": {"tested_on": "individual patient", "assay": "SPAS abuse potential test (liking score vs placebo or comparator)", "conditions": "for liking score difference vs placebo: person", "protocol": "Single-patient drug kits can be designed to test for “liking scores,” “abuse potential scores,” and patient's desire to re-use the test article compared to placebo and positive controls.\nIn this example, the abuse potential of the narcotic analgesic codeine is tested. A single-patient trial is conducted in a patient for whom treatment with codeine is deemed appropriate. The patient receives a SPAS test kit containing codeine, an alternative drug, e.g., ibuprofen and a questionnaire designed to elicit the liking score, desirability to re-use test article and abuse potential of the patient to codeine.\nIn another example, in follow-up to the test above, the clinician compares diazepam to secobarbital in the same patient."}, "[2]": {"tested_on": "previously tested similar patients", "assay": "follow-up of previously tested similar patients in the database (addiction / smoking)"}, "[3]": {"tested_on": "hyperactive child (Minimum Brain Dysfunction or Attention Deficit Disorder)", "assay": "SPAS single-patient drug trial of methylphenidate vs placebo", "protocol": "The usefulness of methylphenidate (Ritalin) treatment in a hyperactive child (Minimum Brain Dysfunction or Attention Deficit Disorder) is evaluated.\nTechnology: Consists of instructions, “calendar” packaging for drug and a substantially identical looking placebo to assure appropriate dosing and monitoring of compliance, questionnaires and assessment forms and instructions. […] Results are mailed to the physician and, in this case, parent for use in evaluating the usefulness of the therapy. The physician and parent are contacted, e.g., every three months to provide data on therapies utilized, and perceived outcome, until the condition is resolved.\nThe questionnaire portion of the kit includes an initial consent form for the parent or guardian to complete. The questionnaire also provides background information on the study and possible side effects associated with the medication. Also included therein is a form for providing relevant patient and family histories. More importantly, the questionnaire, in this case includes a portion for the weekly input by parents/guardians and school observers for answers to questions relating to the drug evaluation. Physician questionnaires are similarly arranged.\nThe trial calls for 40 mg to be given daily as 10 mg four times daily compared to identical appearing placebo which is also given four times daily. After completing the trial and questionnaire, the data is processed to statistically determine the results."}, "[4]": {"tested_on": "patients with the same disorder (hyperactive child)", "assay": "pooled SPAS data and follow-up of patients continued on methylphenidate 40 mg daily", "format": "in vivo, human", "protocol": "All results obtained from the data are compared against the results provided by data amassed from a pool of about 200 patients with the same disorder. If, of these 200 patients, 55 experience encouraging results (along with the current patient) they are continued on 40 mg daily treatment. If, of these 55 patients, 5 are lost to follow-up, with 50 remaining for prospective evaluation, the physician continues the patient on 40 mg methylphenidate daily based solely on the isolated SPAS single-patient drug trial results. The physician then reviews the pooled data on the 50 patients. This will be done to understand under what circumstances this individual patient is likely to continue to show benefit from methylphenidate 40 mg treatment, and what conditions lead to treatment failure.\nIf for example, the pool of 50 patients who continue treatment have the following scores following the original SPAS testing:\nAll 50 patients are followed up by telephone interview monthly for nine months or more, and outcomes are prospectively documented.\nThe continuing validation process using pooled data, which is a subject of this invention, provides additional data essential to formulating a rational therapeutic decision."}, "hypertensive person": {"tested_on": "hypertensive person", "assay": "double-blind single-patient trial of verapamil as therapeutic alternative to propranolol", "format": "in vivo, human", "conditions": "for mean systolic blood pressure increases: end of six week trial, verapamil SR 240 mg vs propranolol SR 180 mg once daily, statistically insignificant; for mean systolic blood pressure increases / mean diastolic pressure: little difference between drugs; for mean diastolic pressure: throughout six week trial", "protocol": "In this example, the validity of using a sustained release formulation of verapamil 240 mg once daily as a therapeutic alternative to sustained release propranolol 180 mg once daily in a hypertensive person is shown. The trial during which the two medications are randomly administered in a double-blind manner is six weeks. The questionnaire used is set up in a manner similar to that described in above examples except that the questions elicit information related to the disease of hypertension. Blood pressure and adverse event reports are taken daily by the patient. […] Sleepiness is reported at equal rates for both drugs. All values are statistically insignificant and the therapeutic alternative selection is objectively validated."}, "[5]": {"conditions": "patients with statistically altered sleep patterns, within two months"}, "[6]": {"conditions": "pool of 50 patients who continue treatment"}}, "note": "Counter-ions that a name gives are not always drawn.", "data": [{"molecule": "CCOC(=O)N1CCC(=C2c3ccc(Cl)cc3CCc3cccnc32)CC1", "note": "[CL, loratidine]", "values": [{"measurement": "incidence of sedation", "setting": "[1]; person", "result": 2, "unit": "on a 3 point scale"}]}, {"molecule": "CN(C)CCC(c1ccc(Cl)cc1)c1ccccn1", "note": "(centres unmarked) [CM, chlorpheniramine maleate]", "values": [{"measurement": "patient's symptoms at reevaluation", "setting": "[1]; 6 and 12 months post-initiation of CM treatment", "result": "well maintained"}, {"measurement": "similar patients well maintained during a year long follow-up", "setting": "[1]; database patients placed on CM after single-patient trials", "result": "37 of the 40"}, {"measurement": "incidence of sedation", "setting": "[1]; person", "result": 2, "unit": "on a 3 point scale"}, {"measurement": "control of most bothersome symptom, sneezing", "setting": "[1]; person, perennial allergic rhinitis", "result": "similarly and effectively controlled"}]}, {"molecule": "COc1ccc2c3c1O[C@H]1[C@@H](O)C=C[C@H]4[C@@H](C2)N(C)CC[C@@]341", "note": "[codeine]", "values": [{"measurement": "liking score", "setting": "individual patient; patient on codeine", "result": "3 out of 5"}, {"measurement": "liking score difference vs placebo", "setting": "individual patient; statistically significant (Bayesian feedback)", "result": 2, "unit": "units"}, {"measurement": "patients who became addicted", "setting": "[2]; Caucasian female patients 30 to 40 years with similar 0 unit difference", "result": "10 out of 1250"}, {"measurement": "patients who became addicted", "setting": "[2]; black male patients 40 to 50 years old with similar 2-unit difference, treated with codeine", "result": "25 out of 600"}, {"measurement": "patients who became addicted", "setting": "[2]; similar patients with 2 unit differences, within three months", "result": "Twenty"}, {"measurement": "patients who became addicted", "setting": "[2]; similar patients with 3 unit differences", "result": "50 out of 110"}]}, {"molecule": "CN1C(=O)CN=C(c2ccccc2)c2cc(Cl)ccc21", "note": "[diazepam]", "values": [{"measurement": "liking score", "setting": "individual patient; patient on diazepam", "result": "4 out of 5"}, {"measurement": "liking score difference vs placebo", "setting": "individual patient; not statistically significant", "result": 0, "unit": "units"}, {"measurement": "level of addiction on follow-up of similar patients", "setting": "[2]", "result": "comparatively low level of addiction"}]}, {"molecule": "COC(=O)C(c1ccccc1)C1CCCCN1", "note": "(centres unmarked) [methylphenidate]", "values": [{"measurement": "patient's attention span", "setting": "[3]; 40 mg daily as 10 mg four times daily vs placebo, methylphenidate periods", "result": "improved substantially"}, {"measurement": "sleep patterns", "setting": "[3]; 40 mg daily, methylphenidate periods", "result": "statistically altered"}, {"measurement": "teacher comments", "setting": "[3]; methylphenidate dosing periods", "result": "corroborate improved attention span"}, {"measurement": "follow-up outcome, patients with no statistically altered sleep disturbances", "setting": "[4]; monthly telephone interview for nine months or more, 40 mg daily", "result": "well maintained"}, {"measurement": "patients who experience encouraging results", "setting": "[4]; of a pool of about 200 patients with the same disorder", "result": 55}, {"measurement": "patients experiencing grand mal seizures", "setting": "[4]; [5]", "result": "two"}, {"measurement": "patients showing severe episodes of bizarre behaviors", "setting": "[4]; [5]", "result": 90, "unit": "%"}, {"measurement": "Sleep Patterns: have been statistically altered", "setting": "[4]; [6]", "result": "50% have been statistically altered"}, {"measurement": "Sleep Patterns: have not been statistically altered", "setting": "[4]; [6]", "result": "50% have not been statistically altered"}, {"measurement": "Teacher Comments: corroborate improved attention span", "setting": "[4]; [6]", "result": "80% corroborate improved attention span"}, {"measurement": "Teacher Comments: do not corroborate improved attention span", "setting": "[4]; [6]", "result": "20% do not corroborate improved attention span"}, {"measurement": "Attention Span: have substantial improvement", "setting": "[4]; pool of 50 patients who continue treatment, scores following original SPAS testing", "result": "100% have substantial improvement"}, {"measurement": "follow-up outcome, patients with statistically altered sleep patterns", "setting": "[4]; within two months, 40 mg daily", "result": "loss of symptom control"}]}, {"molecule": "CN1CCCC1c1cccnc1", "note": "(centres unmarked) [nicotine]", "values": [{"measurement": "liking score", "setting": "individual patient; on average, patient receiving nicotine", "result": "4 out of 5"}, {"measurement": "liking score difference vs placebo", "setting": "individual patient; statistically significant", "result": 3, "unit": "units"}, {"measurement": "patients who are smokers", "setting": "[2]; female Caucasian patients 15 to 17 years old with similar 3-unit difference", "result": "820 out of 975"}]}, {"molecule": "CC(C)NCC(O)COc1cccc2ccccc12", "note": "(centres unmarked) [propranolol]", "values": [{"measurement": "mean systolic blood pressure increases", "setting": "hypertensive person", "result": 3, "unit": "%"}, {"measurement": "sleepiness reported", "setting": "hypertensive person; human, in vivo", "result": "equal rates"}, {"measurement": "mean diastolic pressure", "setting": "hypertensive person", "result": "essentially stable"}]}, {"molecule": "C=CCC1(C(C)CCC)C(=O)NC(=O)NC1=O", "note": "(centres unmarked) [secobarbital]", "values": [{"measurement": "difference in liking scores, diazepam vs secobarbital", "setting": "individual patient; same person, statistically significant difference", "result": "greater addiction potential"}, {"measurement": "level of addiction on follow-up of similar patients", "setting": "[2]", "result": "high level of addiction"}]}, {"molecule": "COc1ccc(CCN(C)CCCC(C#N)(c2ccc(OC)c(OC)c2)C(C)C)cc1OC", "note": "(centres unmarked) [verapamil]", "values": [{"measurement": "mean systolic blood pressure increases", "setting": "hypertensive person", "result": 3, "unit": "%"}, {"measurement": "sleepiness reported", "setting": "hypertensive person; six week trial, both drugs", "result": "equal rates"}, {"measurement": "mean diastolic pressure", "setting": "hypertensive person", "result": "essentially stable"}]}]}
